Earlier results as cited in US20140271903A1, “USE OF THERMO-SENSITIVE GEL FOR CONTROLLED DELIVERY OF ALK-5 INHIBITORS TO THE EYE AND RELATED METHODS” (NORTHEAST OHIO MEDICAL UNIVERSITY, priority 2013, published 2014).

Key:
[1] = test system: rabbit subconjunctival fibroblasts; conditions: cultured rabbit subconjunctival fibroblasts
[2] = test system: rabbit subconjunctival fibroblasts
[3] = test system: in vivo rabbit GFS model

| Structure (SMILES) | downstream proteins of TGF-β: CTGF and a-SMA [1] | cytotoxicity and cell death versus antimetabolites (5-FU, MMC) [2] | bleb survival period compared to MMC ([3]; in vivo rabbit GFS model) | period of filtering bleb survival ([3]; in vivo rabbit GFS model) | toxicity in GFS compared to MMC ([3]; rabbit, in vivo) | bleb survival ([3]; recent rabbit studies, post-operative scarring after GFS) |
| --- | --- | --- | --- | --- | --- | --- |
| Cc1cccc(-c2[nH]c(C(C)(C)C)nc2-c2ccc3c(c2)OCO3)n1 [SB-505124] | marked reduction | less cytotoxic and causing less cell death than antimetabolites | substantially shorter compared to MMC | extended the period of filtering bleb survival | substantially lower than that of MMC | – |
| CO[C@@]12[C@H](COC(N)=O)C3=C(C(=O)C(C)=C(N)C3=O)N1C[C@@H]1N[C@@H]12 [MMC, mitomycin-C] | – | – | – | – | – | around 30 days |
